Experimental data published in patent US12116343B2, “Inhibitors of APOL1 and methods of using same” (Vertex Pharmaceuticals Incorporated, priority 2020, dated 2024).

Biological target: T1, G1 APOL1 (Homo sapiens, UniProt O14791, I384M/S342G)
T1 construct: expressed in transfected cells
T1 sequence (O14791 28-398 S342G/I384M): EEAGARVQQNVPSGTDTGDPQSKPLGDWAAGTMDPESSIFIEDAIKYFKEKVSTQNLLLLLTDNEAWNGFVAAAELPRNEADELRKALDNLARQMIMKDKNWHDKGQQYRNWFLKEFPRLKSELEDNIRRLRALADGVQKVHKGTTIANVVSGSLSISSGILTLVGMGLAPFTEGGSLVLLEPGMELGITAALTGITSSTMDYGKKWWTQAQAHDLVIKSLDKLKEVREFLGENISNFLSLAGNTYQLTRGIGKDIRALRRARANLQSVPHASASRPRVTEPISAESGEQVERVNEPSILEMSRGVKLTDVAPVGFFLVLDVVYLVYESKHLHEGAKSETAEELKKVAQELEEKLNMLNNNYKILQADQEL
Assay: Acute APOL1 Thallium Assay with inducible stable clones of HEK 293 cells
Format: cell-based
Details: HEK 293 T-Rex cells expressing G1 APOL1; read-out: Thallium Assay (IC50)
Method in brief: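 Tetracycline-inducible HEK293 T-Rex clone G1 DC3.25 expressing G1 APOL1, plated at 26000 cells/well in Opti-MEM with tetracycline induction. APOL1 pore activity read on FLIPR as fluorescence increase from Tl+ influx into cells loaded with a Tl+-sensitive AM-ester dye.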

SMILES	IC50 [nM]
CN1CC(CNC(=O)[C@H]2C[C@H](c3c(-c4ccc(F)cc4)[nH]c4c(F)cc(F)cc43)C2)CC1=O (stereo partly shown) [Compound 70]	> 1000
CC(N)(C(=O)NC(=O)[C@H]1C[C@H](c2c(-c3ccc(F)cc3)[nH]c3c(F)cc(F)cc32)C1)C(F)(F)F (stereo partly shown) [Compound 60]	> 1000
O=C(NCC1CCOCC1)[C@H]1C[C@H](c2c(-c3ccc(F)cc3)[nH]c3c(F)cc(F)cc32)C1 [Compound 42]	> 1000
Cn1ccc(CNC(=O)[C@H]2C[C@H](c3c(-c4ccc(F)cc4)[nH]c4c(F)cc(F)cc43)C2)n1 [Compound 71]	250 to 1000
CC(C)(O)C1CN(C(=O)[C@H]2C[C@H](c3c(-c4ccc(F)cc4)[nH]c4c(F)cc(F)cc43)C2)C1 [Compound 86]	> 1000
CC(C)(NC(=O)[C@H]1C[C@H](c2c(-c3ccc(F)cc3)[nH]c3c(F)cc(F)cc32)C1)C(=O)N1CCOCC1 [Compound 66]	> 1000
NC(=O)[C@@H]1CCCN1C(=O)[C@H]1C[C@H](c2c(-c3ccc(F)cc3)[nH]c3c(F)cc(F)cc32)C1 [Compound 88]	> 1000
C[C@@H](NC(=O)[C@H]1C[C@H](c2c(-c3ccc(F)cc3)[nH]c3c(F)cc(F)cc32)C1)C(=O)N(C)C [Compound 61]	> 1000
O=C(NCC1(CO)COC1)[C@H]1C[C@H](c2c(-c3ccc(F)cc3)[nH]c3c(F)cc(F)cc32)C1 [Compound 83]	> 1000
O=C([C@H]1C[C@H](c2c(-c3ccc(F)cc3)[nH]c3c(F)cc(F)cc32)C1)N1CCC(O)(CO)CC1 [Compound 87]	> 1000
O=C(OC1CN(C(=O)[C@H]2C[C@H](c3c(-c4ccc(F)cc4)[nH]c4c(F)cc(F)cc43)C2)C1)C1CCOCC1 [Compound 85]	250 to 1000
Cn1cnc(CNC(=O)[C@H]2C[C@H](c3c(-c4ccc(F)cc4)[nH]c4c(F)cc(F)cc43)C2)c1 [Compound 48]	< 250
CC(NC(=O)[C@H]1C[C@H](c2c(-c3ccc(F)cc3)[nH]c3c(F)cc(F)cc32)C1)c1ccnn1C (mixture of isomers) [Compound 76]	> 1000
O=C(NC(CO)CF)[C@H]1C[C@H](c2c(-c3ccc(F)cc3)[nH]c3c(F)cc(F)cc32)C1 (stereo partly shown) [Compound 78]	< 250
O=C1NCCC1NC(=O)[C@H]1C[C@H](c2c(-c3ccc(F)cc3)[nH]c3c(F)cc(F)cc32)C1 (stereo partly shown) [Compound 2]	< 250
CC1C[C@H](NC(=O)[C@H]2C[C@H](c3c(-c4ccc(F)cc4)[nH]c4c(F)cc(F)cc43)C2)C(=O)N1 (mixture of isomers) [Compound 84]	> 1000
C[C@H](O)CNC(=O)[C@H]1C[C@H](c2c(-c3ccc(F)cc3)[nH]c3c(F)cc(F)cc32)C1 [Compound 82]	250 to 1000
NCCCNC(=O)[C@H]1C[C@H](c2c(-c3ccc(F)cc3)[nH]c3c(F)cc(F)cc32)C1 [Compound 4]	250 to 1000
CC(NC(=O)[C@H]1C[C@H](c2c(-c3ccc(F)cc3)[nH]c3c(F)cc(F)cc32)C1)C(N)=O (mixture of isomers) [Compound 68]	250 to 1000
NC(=O)C1CCCCN1C(=O)[C@H]1C[C@H](c2c(-c3ccc(F)cc3)[nH]c3c(F)cc(F)cc32)C1 (stereo partly shown) [Compound 92]	> 1000
O=C1NCC[C@H]1NC(=O)[C@H]1C[C@H](c2c(-c3ccc(F)cc3)[nH]c3c(F)cc(F)cc32)C1 [Compound 45]	250 to 1000
CN(C(=O)[C@H]1C[C@H](c2c(-c3ccc(F)cc3)[nH]c3c(F)cc(F)cc32)C1)C1(CO)CC1 [Compound 58]	250 to 1000
CC(NC(=O)[C@H]1C[C@H](c2c(-c3ccc(F)cc3)[nH]c3c(F)cc(F)cc32)C1)c1ccn[nH]1 (mixture of isomers) [Compound 81]	250 to 1000
COCC1(CNC(=O)[C@H]2C[C@H](c3c(-c4ccc(F)cc4)[nH]c4c(F)cc(F)cc43)C2)CC1 [Compound 53]	> 1000
O=C([C@H]1C[C@H](c2c(-c3ccc(F)cc3)[nH]c3c(F)cc(F)cc32)C1)N1C[C@@H](CO)OCC12CC2 [Compound 57]	> 1000
CN(CC(C)(C)O)C(=O)[C@H]1C[C@H](c2c(-c3ccc(F)cc3)[nH]c3c(F)cc(F)cc32)C1 [Compound 93]	> 1000
O=C(NCCO)[C@H]1C[C@H](c2c(-c3ccc(F)cc3)[nH]c3c(F)cc(F)cc32)C1 [Compound 46, 3-[5,7-difluoro-2-(4-fluorophenyl)-1H-indol-3-yl]-N-(2-hydroxyethyl)cyclobutanecarboxamide]	< 250

SMILES	IC50 [nM]
O=C(CNC(=O)[C@H]1C[C@H](c2c(-c3ccc(F)cc3)[nH]c3c(F)cc(F)cc32)C1)NC1CC1 [Compound 50]	> 1000
NCC(O)CNC(=O)[C@H]1C[C@H](c2c(-c3ccc(F)cc3)[nH]c3c(F)cc(F)cc32)C1 (stereo partly shown) [Compound 3]	250 to 1000
O=C1CC(NC(=O)[C@H]2C[C@H](c3c(-c4ccc(F)cc4)[nH]c4c(F)cc(F)cc43)C2)CN1 (mixture of isomers) [Compound 44]	> 1000
Cc1cc(CNC(=O)[C@H]2C[C@H](c3c(-c4ccc(F)cc4)[nH]c4c(F)cc(F)cc43)C2)nn1C [Compound 73]	> 1000
CC(O)CN(C)C(=O)[C@H]1C[C@H](c2c(-c3ccc(F)cc3)[nH]c3c(F)cc(F)cc32)C1 (stereo partly shown) [Compound 90]	> 1000
CCOCC1(CNC(=O)[C@H]2C[C@H](c3c(-c4ccc(F)cc4)[nH]c4c(F)cc(F)cc43)C2)CC1 [Compound 55]	> 1000
CN(CC1(CO)CC1)C(=O)[C@H]1C[C@H](c2c(-c3ccc(F)cc3)[nH]c3c(F)cc(F)cc32)C1 [Compound 49]	> 1000
C[C@H](NC(=O)[C@H]1C[C@H](c2c(-c3ccc(F)cc3)[nH]c3c(F)cc(F)cc32)C1)C(=O)N(C)C [Compound 65]	250 to 1000
COCC1(NC(=O)[C@H]2C[C@H](c3c(-c4ccc(F)cc4)[nH]c4c(F)cc(F)cc43)C2)CC1 [Compound 54]	< 250
CC(NC(=O)[C@H]1C[C@H](c2c(-c3ccc(F)cc3)[nH]c3c(F)cc(F)cc32)C1)c1ccn(C)n1 (mixture of isomers) [Compound 75]	250 to 1000
CN1CCN(C(=O)CNC(=O)[C@H]2C[C@H](c3c(-c4ccc(F)cc4)[nH]c4c(F)cc(F)cc43)C2)CC1 [Compound 67]	> 1000
O=C(NC1(CO)CC1)[C@H]1C[C@H](c2c(-c3ccc(F)cc3)[nH]c3c(F)cc(F)cc32)C1 [Compound 47]	250 to 1000
CCNC(=O)[C@@H]1CCCN1C(=O)[C@H]1C[C@H](c2c(-c3ccc(F)cc3)[nH]c3c(F)cc(F)cc32)C1 [Compound 64]	> 1000
NC(=O)C1(NC(=O)[C@H]2C[C@H](c3c(-c4ccc(F)cc4)[nH]c4c(F)cc(F)cc43)C2)CC1 [Compound 56]	250 to 1000
CC(C)N1CCN(C(=O)[C@H]2C[C@H](c3c(-c4ccc(F)cc4)[nH]c4c(F)cc(F)cc43)C2)CC1=O [Compound 63]	> 1000
NC(=O)CNC(=O)[C@H]1C[C@H](c2c(-c3ccc(F)cc3)[nH]c3c(F)cc(F)cc32)C1 [Compound 1, N-(2-amino-2-oxo-ethyl)-3-[5,7-difluoro-2-(4-fluorophenyl)-1H-indol-3-yl]cyclobutanecarboxamide]	< 250
O=C(NCC1(O)CCCC1)[C@H]1C[C@H](c2c(-c3ccc(F)cc3)[nH]c3c(F)cc(F)cc32)C1 [Compound 69]	> 1000
COCc1cc(CNC(=O)[C@H]2C[C@H](c3c(-c4ccc(F)cc4)[nH]c4c(F)cc(F)cc43)C2)n[nH]1 [Compound 72]	> 1000
CC1(O)CN(C(=O)[C@H]2C[C@H](c3c(-c4ccc(F)cc4)[nH]c4c(F)cc(F)cc43)C2)C1 [Compound 74]	250 to 1000
CN(C)C(=O)CN(C)C(=O)[C@H]1C[C@H](c2c(-c3ccc(F)cc3)[nH]c3c(F)cc(F)cc32)C1 [Compound 62]	250 to 1000
O=C([C@H]1C[C@H](c2c(-c3ccc(F)cc3)[nH]c3c(F)cc(F)cc32)C1)N1CCCCC1CCO (stereo partly shown) [Compound 94]	> 1000
CC(=O)NC1CCCN(C(=O)[C@H]2C[C@H](c3c(-c4ccc(F)cc4)[nH]c4c(F)cc(F)cc43)C2)C1 (stereo partly shown) [Compound 91]	> 1000
CN(CCO)C(=O)[C@H]1C[C@H](c2c(-c3ccc(F)cc3)[nH]c3c(F)cc(F)cc32)C1 [Compound 79]	< 250
O=C([C@H]1C[C@H](c2c(-c3ccc(F)cc3)[nH]c3c(F)cc(F)cc32)C1)N(CCO)C1CC1 [Compound 52]	250 to 1000
O=C(NCC1CC(F)(F)C1)[C@H]1C[C@H](c2c(-c3ccc(F)cc3)[nH]c3c(F)cc(F)cc32)C1 [Compound 41]	> 1000
CN(CC(N)=O)C(=O)[C@H]1C[C@H](c2c(-c3ccc(F)cc3)[nH]c3c(F)cc(F)cc32)C1 [Compound 51]	250 to 1000
O=C(NCC1(O)CCCCC1)[C@H]1C[C@H](c2c(-c3ccc(F)cc3)[nH]c3c(F)cc(F)cc32)C1 [Compound 80]	> 1000

Same assay, conditions: Table 24, Compounds 287 to 465; read-out: Thallium Assay (IC50)

SMILES	IC50 [nM]
NC(=O)CNCC1CC(c2c(-c3ccc(F)cc3)[nH]c3c(F)cc(F)cc23)C1 (stereo not shown) [Compound 433, 2-(((3-(5,7-difluoro-2-(4-fluorophenyl)-1H-indol-3-yl)cyclobutyl)methyl)amino)acetamide]	< 250
NC(=O)CNC[C@H]1C[C@@H](c2c(-c3ccc(F)cc3)[nH]c3c(F)cc(F)cc32)C1 [Compound 447]	< 250
NC(=O)CC1CC(c2c(-c3ccc(F)cc3)[nH]c3c(F)cc(F)cc23)C1 (stereo not shown) [Compound 455]	< 250

Same assay, conditions: Thallium Assay (IC50), HEK 293 T-Rex cells expressing G1 APOL1

SMILES	IC50 [nM]
O=C([C@H]1C[C@H](c2c(-c3ccc(F)cc3)[nH]c3c(F)cc(F)cc32)C1)N1CCC(O)(O)CC1 [Compound 127]	> 1000
